Literature values, collected in patent publication US4764376A, “Method of inhibiting aromatase” (Eli Lilly and Company, priority 1984, dated 1988).

System: breast cancer
Settings: known aromatase inhibitors; result in words

Structure (SMILES)	beneficial effect in treatment of breast cancer
C[C@]12C=CC(=O)C=C1CC[C@@H]1[C@@H]2CC[C@]2(C)OC(=O)CC[C@@H]12 [testolactone]	beneficial effect
CCC1(c2ccc(N)cc2)CCC(=O)NC1=O (centres unmarked) [aminoglutethimide]	beneficial effect
